Assay results taken from patent US4183931A, “2-Ketoalkyl-4(3H)-quinazolinones” (Research Corporation, priority 1977, dated 1980).

What was measured:
[1] = NINCDS Subcutaneous Pentylenetetrazol (Metrazol) Seizure Threshold Test (scMet); assay type: in vivo, mice; settings: for minimal effective dose: sc, read-out: scMet: dosage level that elicited protection
Procedure: (§1) 1. Neurological Activity Tests. […] Compounds were evaluated for anticonvulsant activity in two seizure models, the maximal electroshock seizure (MES) test and the subcutaneous pentylenetetrazol (Metrazol) seizure threshold (scMet) test.
Subcutaneous Pentylenetetrazol (Metrazol) Seizure Threshold Test (scMet) produces threshold (clonic) seizures. Pentylenetetrazol is administered subcutaneously as a threshold 0.5% solution (in 0.9% sodium chloride) in a loose fold of skin on the back of the neck in a dose of 85 mg/kg. […] Metrazol is given 10 minutes before the beginning of the test to allow for the delay in onset of Metrazol action. The animal is observed for 30 minutes. Failure to observe even a threshold seizure (a single episode of clonic spasms at least 5 seconds in duration) is defined as protection and indicates anticonvulsant activity in the test compound. These two methods of seizure provocation reliably elicit well-characterizied seizure phenomena.
(§2) The ability of a compound to prevent maximal electroshock seizures is believed to correlate with its ability to prevent the spread of seizure discharge through neural tissue. Activity against maximal electroshock seizures is thought to indicate potential efficacy in the treatment of major motor (grand mal) seizures. […] Selective action in the test is believed to indicate potential efficacy against absence (petit mal) seizures.
(§3) As described earlier, the MES, scMet and Rotorod tests were performed one-half hour and four hours after administration of each compound.
(§4) In the Secondary Evaluation, median effective doses (ED50) are determined in the MES, scMet and Rotorod assays using the procedures defined in Pharmacology, 95, 99-113 (1949).
(§5) Separate groups of animals are used for each time period. The times of peak toxic and anticonvulsant effect are taken from the resulting graph of percent of animals responding vs. time, and the determinations of median effective doses are performed at those times.

[2] = NINCDS rotorod ataxia test (minimal neurotoxicity); assay type: in vivo, mice
Procedure: (§6) 1. Neurological Activity Tests. The biological testing program is designed to evaluate the following four aspects of drug action: (1) the existence and specificity of anticonvulsant activity; (2) the toxicity, particularly to the central nervous system; and, if the results of (1) and (2) are favorable, (3) the potency and protective index, a comparison between toxic and effective dose and (4) the time course of activity. Compounds were evaluated for anticonvulsant activity in two seizure models, the maximal electroshock seizure (MES) test and the subcutaneous pentylenetetrazol (Metrazol) seizure threshold (scMet) test.
Central nervous system toxicity was evaluated in the rotorod ataxia test. This test is designed to detect minimal neurotoxicity. The animal is placed on a 1-inch diameter knurled plastic rod rotating at 6 rpm. Normal mice can remain indefinitely on a rod rotating at this speed. Neurological deficit is defined as the failure of the animal to remain on the rod for at least 1 minute. This test has a clear end-point, is quantifiable and correlates well with the clinical assessment of minimal toxicity.
(§7) Specific anticonvulsant evaluations performed by NINCDS using MES, scMet and Rotorod assays are presented in Tables III & IV for fourteen new compounds as well as several known compounds. Table III centers attention on 2-substituted-3-o-tolyl-4-(3H)-quinazolinones while Table IV includes the findings for various other 2,3-disubstituted-4(3H)-quinazolinones. As described earlier, the MES, scMet and Rotorod tests were performed one-half hour and four hours after administration of each compound. The tables identify the dosage level that elicited a positive result, such as protection against MES and scMet induced seizures, or loss of balance on the rotorod.
In the Secondary Evaluation, median effective doses (ED50) are determined in the MES, scMet and Rotorod assays using the procedures defined in Pharmacology, 95, 99-113 (1949). In addition, each compound's anticonvulsant activity and neurotoxicity over time are determined by measuring the effect of an intraperitoneally administered estimated median effective dose on maximal electroshock seizures and rotorod performance at intervals of 1/2, 1, 2, 3, 4, 6 and 8 hours.
as §5

[3] = NINCDS Maximal Electroshock Seizure Test (MES); assay type: in vivo, mice; settings: for minimal effective dose: read-out: MES: dosage level that elicited protection
Procedure: as §1
The Maximal Electroshock Seizure Test was performed according to the method described by Swinyard and coworkers,* wherein a drop of 0.9% saline is instilled in each eye prior to application of corneal electrodes. Seizures are elicited with a 50 Hz alternating current of 50 mA (5 to 7 times that necessary to elicit minimal electroshock seizures) delivered for 0.2 sec via corneal electrodes. This stimulus will produce a maximal seizure in all normal mice. The maximal seizure typically consists of a short period of initial tonic flexion and a prolonged period of hind limb tonic extension, followed by terminal clonus. The seizure lasts about 22 seconds. Abolition of the hind limb tonic extensor component of the seizure is defined as protection and indicates anticonvulsant activity in the test compound.
as §2, §3, §4, §5

[4] = NINCDS primary evaluation, overall classification; assay type: in vivo, mice; settings: primary evaluation
Procedure: as §6, §7

[5] = literature; cited from earlier work
[6] = NPP maximal electroshock seizure (MES) protection; assay type: in vivo, white male mice of the Carworth Farm Strain CF-1; settings: Mus musculus, ip; conducted at 30 mg/kg i.p.
Procedure: (§8) The procedures for the determination of a neuropharmacological profile involved white male mice of the Carworth Farm Strain CF-1 weighing 18 to 22 grams. […] Intraperitoneal injections were administered in logarithmic progression and sequentially. The dose levels employed routinely were 10, 30, 100 and 300 mg/kg, using four male mice at each dose level. Since this test was conducted in a sequential manner, the first does administered was at 300 mg/kg. […] Approximately thirty-eight signs and symptoms of pharmacological activity can be identified.
(§9) Since this is a general CNS screening procedure, only peak effects were recorded. Certain measures of behavior and neurological deficit were scored in terms of intensity of effect, while most others were determined on an all or none basis. Thus, in scoring measures which were normally present, e.g., spontaneous activity and skin color, an increase in score from 4 to 8 was used to denote stimulation or enhancement of skin color, whereas a decrease in score from 4 to 0 indicated depression or cyanosis. For scoring measures normally absent, e.g., depression, righting reflex and ataxia, activity was reflected as an increase in score from 0 to 8. The 0 to 8 scale was rounded off so that the actual ratings are only 0, 2, 4, 6 and 8. The compounds were also evaluated for anticonvulsant activity by using the maximal electroshock seizure (MES) test. In the MES study, four mice were dosed intraperitoneally at 100 mg/kg and challenged thirty minutes later with 50 mA, 0.2 second duration of electroshock. A protection ratio (number of mice protected from tonic extension .div. number of mice tested) was then established.
(§10) Scores for behavioral symptoms, including depression, righting reflex and ataxia, are the actual numbers reported. Protection against MES is reported as a percentage. Since four animals were involved in this test, the findings are 0% for none protected, 25% for one out of four, etc. […] In order to maintain reasonable uniformity in the reporting of results, each entry corresponds to a dosage level of 100 mg/kg. Any variations from that dosage are indicated.

[7] = NPP lethality (estimated LD50); settings: mouse, in vivo, ip
Procedure: as §8
(§11) The animals were observed continously for one hour and, if no signs of pharmacological or toxicological activity were present at the end of the first hour, they were intermittently checked for activity every fifteen minutes thereafter for two consecutive hours. […] The observation period began immediately following the injection and the animals were then continuously observed for three hours and intermittently checked thereafter for forty-eight hours. The animals were observed and signs and symptoms of pharmacological activity were recorded continuously until no further symptoms developed and until the symptoms that appeared were no longer present. […] In such instances, the animals were observed beyond this period until they returned to normal. Routinely, the number of animals alive at the end of the forty-eight hour observation period was recorded and the LD50 estimated.
as §10

[8] = literature; cited from earlier work; remark: listed apart in the source
[9] = Neuropharmacological Profile (NPP): general CNS observational screen (depression, righting reflex, ataxia); settings: at 30 mg/kg (value in parentheses), i.p., mice, score 0-8
Procedure: Representative compounds according to the present invention were tested for central nervous system activity by Pharmakon Laboratories of Scranton, Pennsylvania. The battery of general observational procedures used is referred to herein as a Neuropharmacological Profile (NPP). Additionally, representative compounds were tested in the Anticonvulsant Screening Project of the National Institutes of Neurological and Communicative Disorders and Stroke (NINCDS) at the University of Utah under the direction of Dr. Ewart A. Swinyard.
as §8, §11
The animals are free to move about for evaluation of spatial orientation, alertness and spontaneous motor activity.
as §9
At the termination of the test, the results were recorded and tabulated.
as §10

[10] = literature, mice; cited from earlier work
[11] = literature; cited from earlier work; remark: listed apart in the source
[12] = Mus musculus, after 4 hr (value in parentheses)
[13] = after 4 hr (value in parentheses)
[14] = Mus musculus, ip, after 4 hr (value in parentheses)
[15] = Mus musculus, ip, secondary evaluation, at time of peak effect

Cc1nc2ccccc2c(=O)n1-c1ccccc1Cl [mecloqualone, 2-methyl-3-o-chlorophenyl-4(3H)-quinazolinone, reference compound]
minimal effective dose ([1]; Mus musculus, after 0.5 hr): 30 mg/kg | minimal effective dose [1, 12]: 100 mg/kg | effectiveness in protection against scMet induced seizures, comparison methaqualone/mecloqualone ([1]; primary evaluation): more effective in protection against scMet induced seizures | Rotorod: dosage level that elicited loss of balance ([2]; after 0.5 hr): 30 mg/kg | Rotorod: dosage level that elicited loss of balance [2, 13]: 100 mg/kg | minimal effective dose [3, 14]: 300 mg/kg | toxicity remark (footnote a to NINCDS classification) [4]: Extremely toxic | anticonvulsant activity (in words) [5]: better anticonvulsant agent than methaqualone

Cc1ccccc1-n1c(C)nc2ccccc2c1=O [methaqualone, 2-methyl-3-o-tolyl-4(3H)-quinazolinone, reference compound]
ED50 [1, 15]: 33.5 mg/kg | minimal effective dose ([1]; Mus musculus, after 0.5 hr): 100 mg/kg | minimal effective dose [1, 12]: 300 mg/kg | responders at 30 mg/kg [6]: 0% | Rotorod: dosage level that elicited loss of balance ([2]; after 0.5 hr): 100 mg/kg | Rotorod: dosage level that elicited loss of balance [2, 13]: 300 mg/kg | TD50 ([2]; mouse, in vivo, ip, secondary evaluation, at time of peak effect): 55 mg/kg | minimal effective dose ([3]; Mus musculus, ip, after 0.5 hr): 100 mg/kg | minimal effective dose [3, 14]: 300 mg/kg | ED50 [3, 15]: 52 mg/kg | activity in the MES test, comparison methaqualone/mecloqualone ([3]; primary evaluation): more active in the MES test | LD50 at 48 h [7]: > 562 mg/kg | sedative-hypnotic / hypnotic / depressant activity (in words) [8]: comparable to short-acting barbiturates in terms of sedative-hypnotic activity | CNS Depression [9]: 8 | prevention of pentylenetetrazol induced convulsive seizures (in words) [10]: superior to sodium phenobarbitone

CCC1(c2ccccc2)C(=O)NC(=O)NC1=O [phenobartital]
protection against maximal electro-shock seizures (in words) [11]: better protector against maximal electro-shock seizures (MES) then methaqualone
